Assay results published in paper PMC7022493, “Kinetic, Thermodynamic, and Crystallographic Studies of 2-Triazolylthioacetamides as Verona Integron-Encoded Metallo-β-Lactamase 2 (VIM-2) Inhibitor” (Biomolecules, 2020).

Legend:
[1] = biological target: T1, VIM-2 (Pseudomonas aeruginosa, UniProt Q9K2N0); experiment: VIM-2 enzyme-inhibition assay with nitrocefin as substrate (UV-Vis, 482 nm); assay type: biochemical, P. aeruginosa
T1 construct: made in house; host or cells: E. coli BL21 (DE3), plasmid pET24a-VIM-2
Protocol: The VIM-2 was overexpressed and purified as previously described. In brief, E. coli BL21 (DE3) cells were transelected with plasmid pET24a-VIM-2. A 10 mL overnight culture of these cells in lysogeny broth (LB) was used to inoculate of M9 media containing kanamycin (25 μg/mL). The cells were allowed to grow at 37 °C with shaking until the optical density at 600 nm (OD600) reached 0.6–0.8. VIM-2 expression was induced with 1 mM IPTG at 25 °C overnight. Cells were collected by centrifugation and lysed by sonication. The supernatant collected by centrifugation was dialyzed three times at 4 °C and loaded on a Q-Sepharose column. Bound protein was eluted with a 0–500 mM NaCl gradient in 30 mM Tris, pH 7.6. The further purification of crude VIM-2 was run though a G75 column (GE Healthcare, Boston, MA, USA) and eluted with 20 mM Tris, pH 7.6, containing 150 mM NaCl, and 5% β-mercaptoethanol. Enzyme purity was analyzed by SDS-PAGE, and determined the concentration by measuring the absorption at 280 nm (extinction co-efficient: 39,000 M^−1cm^−1) using the Nanodrop 2000 c spectrophotometer (Thermo Scientific, Waltham, MA, USA).
The percent inhibition (inhibition%, enzyme activity without inhibitor minus residual activity with 100 μM inhibitor) and IC50 (the inhibitor concentrations causing 50% decrease of enzyme activity) values were measured using a previously established enzyme-inhibition assay on an Agilent UV8453 UV−Vis spectrophotometer using 60 μM nitrocefin (monitoring at 482 nm) as a substrate. The 2-triazolylthioacetamides 1a–j, 2a–e, and 3a–e were dissolved with DMSO and diluted with ddH2O. The VIM-2 and nitrocefin were prepared with a Tris buffer (30 mM, pH 7.6). The final concentration of DMSO inhibition experiments was below 1%. The IC50 values were determined in triplicate against VIM-2, where the inhibitor concentrations were varied between 0 and 120 µM, and final concentrations VIM-2 was 0.6 nM. The tested VIM-2 and inhibitors were premixed at room temperature (30 mM Tris, pH 7.6), and then the substrate in the same buffer was added to the mixture, the initial rates of nitrocefin hydrolysis were recorded at each inhibitor concentration. The percentage inhibition was calculated by the equation inhibition% = 1 − (Vi/V0) and IC50 values were calculated by plotting the average inhibition% against inhibitor concentration and fitting of the data.
To evaluate 2-triazolylthioactamides, the VIM-2 was expressed and purified as previously described. The steady-state kinetic assays were conducted on an Agilent UV8453 spectrometer using nitrocefin (60 µM) as a substrate and monitoring its hydrolytic product at 482 nm.
IC50 values of 1a–j against VIM-2 were measured in 30 mM Tris, pH 7.6, in which the concentrations of inhibitors were varied between 0 and 120 µM. […] Moreover, clogP values of 1a–j (Table 1), as predicted by the ALOGPS 2.1 program, are in the range 1.88–3.05, which are similar with many marked antibacterial agents.

[2] = biological target: T1, VIM-2; experiment: Binding affinity to VIM-2 by isothermal titration calorimetry (ITC); set-up: species or system P. aeruginosa; conditions: for TΔS / ΔH / Ka / ΔG: ITC, 298 K, Tris-HCl; for TΔS / ΔH / ΔG: pH 7.6; for Ka: pH 7.6, single binding site model; for ΔG: ∆G = ∆H − T∆S
Protocol: Binding affinity measurements were performed by ITC on a Malvern MicroCal-ITC200 at 298 K. The syringe stirring rate was 750 rpm and kept constant. A stock of VIM-2 and inhibitor (1b, 1c, and 1h) were prepared in Tris buffer (30 mM, pH 7.6) with 1% DMSO. The concentration of VIM-2 was 100 μM. Before the injections, the solution of enzyme and inhibitor were degassed by centrifugation (32,583× g, 5 min), respectively. Then, the prepared VIM-2 solution was transferred into the sample cell (210 μL), and the inhibitor (1 mM) in the syringe was titrated into the sample cell by 18 injections (0.5 μL for the first injection and 1.5 μL for the other 17 injections) with 120 s intervals per injection. The heat of dilution for the inhibitor was determined in the control experiment and subtracted from the integrated data before curve fitting. The data were fitted and analyzed with single binding sites using Origin 7.0 software, provided with the instrument.
To investigate the binding affinity of 2-triazolylthioactamides to VIM-2, 1b, 1c, and 1h as enzyme inhibitors were selected based on the inhibitory activity. […] After the best fitting by the single binding site model, the affinity constant (Ka), corresponding dissociation constant (Kd), and thermodynamic parameters (∆H, ΔS, and ΔG) were determined and listed in Table 3.

[3] = tested on: E. coli DH10B-VIM-2; experiment: MIC by broth micro-dilution, cefazolin alone or with inhibitors, E. coli producing VIM-2; assay type: cell-based; conditions: for Decrease in MIC of cefazolin: inhibitor 128 μg/mL
Protocol: The minimum inhibitory concentration (MIC) of antibiotics, both alone and in the presence of enzyme inhibitors, was determined using the broth micro-dilution method. E. coli DH10B containing plasmid pBCSK-VIM-2 grown in MH medium to OD600 = 0.45 were used as inocula, after an 84-fold dilution to 1 × 10^5 CFU/mL in MH medium. Cefazolin was dissolved in MH medium to prepare 1024, 512, 256, 128, 64, 32, 16, and 8 for E. coli producing VIM-2 stock solutions, respectively. Compounds 1a–j, 2a–e, and 3a–e were dissolved in DMSO and diluted with MH media to prepare 64 µg/mL stock solutions. The 50 μL prepared stock solutions with different cefazolin concentrations were diluted with a 50 μL inhibitor stock solution, then 100 μL inoculum was added sequentially. The final concentration of both the inhibitor and cefazolin were a quarter of the stock solution concentrations.
The ability of 2-triazolylthioactamides to restore the antimicrobial activity of cefazolin against the bacteria producing VIM-2 was investigated by determining the MICs of β-lactams in the presence and absence of inhibitors (16 μg/mL). E. coli DH10B containing plasmid pBCSK-VIM-2 was used to study these inhibitors. […] Although the strains treated with a high dose of 2-triazolylthioacetamides (128 μg/mL) were still resistant, they are promising in the future.

[4] = tested on: E. coli cells without VIM-2; experiment: Antibacterial activity (MIC) against E. coli cells without VIM-2; assay type: cell-based; conditions: Escherichia coli, read-out: MIC of cefazolin

`O=C(CSc1nnc(-c2ccccc2C(=O)O)[nH]1)Nc1ccccc1` [Compound 1a] gave an IC50 [1] of 40.8 ± 0.3 µM.
Compound `O=C(CSc1nnc(-c2ccccc2C(=O)O)[nH]1)Nc1nc2ccccc2[nH]1` [Compound 1b] has a Kd [2] of 8.62 µM, a TΔS [2] of 4.26 kcal/mol and a ΔH [2] of -2.66 kcal/mol. The Ka [2] was 116000 M⁻¹, the ΔG [2] was -6.92 kcal/mol and the “Decrease in MIC of cefazolin” value [3] was 16 fold. The IC50 [1] was 58.6 ± 0.1 µM.
For `O=C(CSc1nnc(-c2ccccc2C(=O)O)[nH]1)Nc1nc2ccccc2s1` [Compound 1c], the Kd [2] was 7.94 µM, the TΔS [2] was 5.34 kcal/mol and the ΔH [2] was -1.61 kcal/mol. For the same compound, the Ka [2] was 126000 M⁻¹, the ΔG [2] was -6.95 kcal/mol and the “Decrease in MIC of cefazolin” value [3] was 16 fold. For the same compound, the IC50 [1] was 49.1 ± 0.1 µM.
For `O=C(CSc1nnc(-c2ccccc2C(=O)O)[nH]1)Nc1ccc(Cl)cc1` [Compound 1d], the IC50 [1] was 52.2 ± 0.5 µM.
`O=C(CSc1nnc(-c2ccccc2C(=O)O)[nH]1)Nc1ccc([N+](=O)[O-])cc1` [Compound 1e] showed an IC50 [1] of 38.2 ± 0.3 µM.
`O=C(CSc1nnc(-c2ccccc2C(=O)O)[nH]1)NCc1ccccc1` [Compound 1f] showed an IC50 [1] of 45.8 ± 0.2 µM.
With `O=C(CSc1nnc(-c2ccccc2C(=O)O)[nH]1)Nc1ccccc1Cl` [Compound 1g] the “Decrease in MIC of cefazolin” value [3] was 32 fold and the IC50 [1] was 31.4 ± 0.4 µM.
With `O=C(CSc1nnc(-c2ccccc2C(=O)O)[nH]1)Nc1cccc(Cl)c1` [Compound 1h] the Kd [2] was 6.41 µM, the TΔS [2] was 1.98 kcal/mol and the ΔH [2] was -5.10 kcal/mol. The Ka [2] was 156000 M⁻¹, the ΔG [2] was -7.08 kcal/mol and the “Decrease in MIC of cefazolin” value [3] was 32 fold. The IC50 [1] was 20.6 ± 0.1 µM.
`O=C(CSc1nnc(-c2ccccc2C(=O)O)[nH]1)Nc1ccccc1[N+](=O)[O-]` [Compound 1i] showed an IC50 [1] of 45.2 ± 0.1 µM.
`O=C(CSc1nnc(-c2ccccc2C(=O)O)[nH]1)Nc1cccc([N+](=O)[O-])c1` [Compound 1j] showed an IC50 [1] of 57.6 ± 0.4 µM.
For `Cc1nnc(SCC2=C(C(=O)O)N3C(=O)[C@@H](NC(=O)Cn4cnnn4)[C@H]3SC2)s1` [cefazolin, reference compound], the MIC ([3]; Escherichia coli, DH10BVIM2, read-out: MIC of cefazolin) was 128 µg/mL and the MIC [4] was 1 µg/mL.
